As a reminder, the Kd is a measure of binding affinity in units of concentration.

Assay [1] addresses T1, TogB (Yersinia enterocolitica, UniProt A0ACH1C7V4, D363C).
T1 construct: gene yesO; TogB without signal secretion peptide, D363C conjugated to MDCC
T1 sequence (A0ACH1C7V4 27-430 D363C): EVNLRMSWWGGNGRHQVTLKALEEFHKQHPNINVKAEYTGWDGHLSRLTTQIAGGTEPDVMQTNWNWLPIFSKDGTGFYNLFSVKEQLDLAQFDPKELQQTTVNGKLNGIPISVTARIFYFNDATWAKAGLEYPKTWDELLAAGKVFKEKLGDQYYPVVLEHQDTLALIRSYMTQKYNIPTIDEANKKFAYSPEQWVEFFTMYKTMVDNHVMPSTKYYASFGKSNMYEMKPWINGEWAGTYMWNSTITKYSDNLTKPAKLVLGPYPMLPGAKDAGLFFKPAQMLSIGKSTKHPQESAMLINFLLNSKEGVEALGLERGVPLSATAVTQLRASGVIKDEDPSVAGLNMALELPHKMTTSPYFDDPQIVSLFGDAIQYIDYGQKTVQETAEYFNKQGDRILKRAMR
Nature of the assay: stopped-flow fluorescence titration of MDCC-labelled purified protein. It is filed as binding.

Assay [2] addresses T1, TogB. The assay can be described thus: equilibrium fluorescence change of MDCC-labelled purified protein at […] ligand (n = […]). The class given is binding.

On TogB [1], `O=C(O)[C@H]1O[C@H](O[C@@H]2[C@H](O)[C@@H](O)C(O)O[C@@H]2C(=O)O)[C@H](O)[C@@H](O)[C@H]1O` (stereo partly drawn) [digalUA, digalacturonic acid] showed a dissociation constant (Kd) of 6 ± 1 µM.
For the molecule `O=C(O)[C@H]1O[C@H](O[C@@H]2[C@H](O)[C@@H](O)[C@@H](O[C@@H]3[C@H](O)[C@@H](O)C(O)O[C@@H]3C(=O)O)O[C@@H]2C(=O)O)[C@H](O)[C@@H](O)[C@H]1O` (stereo partly drawn) [trigalUA, trigalacturonic acid], at TogB [2], the fluorescence change is on record as −44%.
For `O=C(O)C1=C[C@H](O)[C@@H](O)[C@@H](O[C@@H]2[C@H](O)[C@@H](O)C(O)O[C@@H]2C(=O)O)O1` (stereo partly drawn) [unsatdigalUA, 4,5-unsaturated digalacturonic acid], the equilibrium dissociation constant (Kd) on TogB [1] was found to be 1.3 ± 0.5 µM.
